Experimental data published in ChEMBL document CHEMBL1134634, “Rapid enantiomeric quantification of an antiviral nucleoside agent (D,L-FMAU, 2'-fluoro-5-methyl-beta,D,L-arabinofurano-syluracil) by mass spectrometry” (J Med Chem, 2001).

Tested on: Hepatitis B virus
Test: Effective concentration against hepatitis B virus
Assay type: functional, organism-based

Cc1cn([C@@H]2O[C@H](CO)[C@@H](O)[C@@H]2F)c(=O)[nH]c1=O [5-METHYL-2'-FLUOROARAURACIL]
EC50: 130 nM
